The text below walks through data of patent US20230341403A1, “METHODS AND KITS FOR THE DIAGNOSIS OF LUNG CANCER” (priority 2020, published 2023).

The assay concerns A549 cells transfected with the LARGE portion of the isoform 4 (PC4-5). Briefly: Cell proliferation by CFSE and flow cytometry in transfected A549 cells. To be noted: FIG. 6B; for tumour growth / cancer proliferation in the cells transfected with the "large" subunit of the isoform 4: concentration not stated at this place. The class given is cell-based, human. As to the method: Transfections. A549 cells, lung adenocarcinoma, were transfected by means of marketable kits for 72 hours in transient way with the plasmid vectors: 1. PC4-1, miming the whole isoform 1 of the caspase-4; 2. PC4-2, miming CARD+LARGE subunit; 3. PC4-3, miming LARGE+SMALL subunit of the isoform 1; 4. PC4-4, miming LARGE subunit of the isoform 1 and 5. PC4-5, miming LARGE subunit of the isoform 4 of the caspase-4. The cell proliferation was evaluated through method of CFSE (1 μM), analysed by means of flow cytometry. In some experiments, the transfected cells marked with CFSE, were subjected to treatment with two leader compounds (compound 5: COMP-5; compound 6: COMP-6).
In order to understand the role of the isoform 4 in the cancer growth, the A549 cells, cells of lung adenocarcinoma, were transfected with specific vectors, containing specific portions of the isoform 1 and isoform 4 as described in FIG. 6A. It was observed that the isoform 4 and 1 are both capable of promoting cancer proliferation when the LARGE subunit is expressed with respect to the other considered structures (FIG. 6A). At last, the cells transfected with the large subunit of the isoform 1 (PC4-4) and 4 (PC4-5) were treated with leading compound with the purpose of verifying a cancer growth decrease.
For orientation: Flow cytometry measures light scatter and fluorescence of single cells or particles in a stream.

On to Ac-VVDC-NH2 [compound 6], for which the “tumour growth / cancer proliferation in the cells transfected with the "large" subunit of the isoform 4” value is recorded as “can be inhibited”. Also, the “cancer growth of the A549 cells transfected with the LARGE portion of the isoform 4” value (compound at 10 nM, A549 transfected with PC4-5, CFSE flow cytometry) is on record as “capable of reducing significantly the cancer growth”. Further, under “listed as Ac-VVDC-NH2”, the “tumour growth / cancer proliferation in the cells transfected with the "large" subunit of the isoform 4” value is “significant decrease in the tumour growth”.
